Test results taken from patent US20130302442A1, “METHODS OF USING (4S,4AS,5AR,12AS)-4-DIMETHYLAMINO-3,10,12,12A-TETRAHYDROXY-7-[(METHOXY(METHYL)AMINO)-METHYL]-1,11-DIOXO-1,4,4A,5,5A,6,11,12A-OCTAHYDRO-NAPHTHACENE-2-CARBOXYLIC ACID AMIDE” (priority 2012, published 2013).
In brackets after ≈: the same amount, converted by molar mass. Read-outs that look alike come from different tables or passages of the source.

Assays:
S. aureus = experiment: In vitro MIC testing, antibacterial spectrum of activity; assay type: cell-based, Staphylococcus aureus; conditions: for MIC50 / MIC90: Staphylococcus aureus; for MIC50: read-out: MIC50; for MIC90: read-out: MIC90
S. epidermidis = experiment: as above; assay type: cell-based, Staphylococcus epidermidis; conditions: for MIC50 / MIC90: Staphylococcus epidermidis; for MIC50: read-out: MIC50; for MIC90: read-out: MIC90
S. haemolyticus = experiment: as above; assay type: cell-based; conditions: Staphylococcus haemolyticus, S. haemolyticus (33 isolates); for MIC50: read-out: MIC50; for MIC90: read-out: MIC90
[1] = test system: methicillin-sensitive S. aureus (MSSA); experiment: In vitro MIC against isolates of MSSA; assay type: cell-based, Staphylococcus aureus; conditions: for MIC Range / MIC50 / MIC90: MSSA (34 isolates); for MIC50 / MIC90: Staphylococcus aureus; for MIC90: read-out: MIC90
[2] = test system: hospital-associated methicillin-resistant S. aureus (MRSA-HA); experiment: In vitro MIC against isolates of MRSA-HA; assay type: cell-based, Staphylococcus aureus; conditions: for MIC50 / MIC90: Staphylococcus aureus
[3] = test system: community-acquired methicillin-resistant S. aureus (MRSA-CA); experiment: In vitro MIC against isolates of MRSA-CA; assay type: cell-based, Staphylococcus aureus; conditions: for MIC50 / MIC90: Staphylococcus aureus
Chlamydia trachomatis [4] = experiment: In vitro susceptibility testing of Chlamydia trachomatis in HEp-2 cells (first study); assay type: cell-based; conditions: Chlamydia trachomatis, C. trachomatis strains, read-out: MIC at which 90% of the strains were inhibited (MIC90)
Chlamydia trachomatis [5] = experiment: Susceptibility testing (MIC, MBC) of 10 isolates of C. trachomatis in HEp-2 cells; assay type: cell-based
Chlamydia pneumoniae = experiment: Susceptibility testing (MIC, MBC) of 10 isolates of C. pneumoniae in HEp-2 cells; assay type: cell-based
P. acnes = experiment: In vitro MIC testing, antibacterial spectrum of activity; assay type: cell-based, Propionibacterium acnes; conditions: Cutibacterium acnes
S. pneumoniae = experiment: as above; assay type: cell-based, Streptococcus pneumoniae; conditions: Streptococcus pneumoniae, S. pneumoniae [PSSP] (32 isolates)
S. pyogenes = experiment: as above; assay type: cell-based; conditions: Streptococcus pyogenes
S. agalactiae = experiment: as above; assay type: cell-based; conditions: Streptococcus agalactiae
[6] = test system: Streptococcus spp. [Group C]; experiment: as above; assay type: cell-based; conditions: Streptococcus spp. [Group C] (30 isolates)
E. faecalis = experiment: as above; assay type: cell-based; conditions: Enterococcus faecalis
E. faecium = experiment: as above; assay type: cell-based; conditions: Enterococcus faecium
E. coli = experiment: as above; assay type: cell-based; conditions: Escherichia coli
K. pneumoniae = experiment: as above; assay type: cell-based; conditions: Klebsiella pneumoniae; K. pneumoniae (31 isolates)
P. mirabilis = experiment: as above; assay type: cell-based; conditions: Proteus mirabilis; P. mirabilis (30 isolates)
P. aeruginosa = experiment: as above; assay type: cell-based; conditions: Pseudomonas aeruginosa; P. aeruginosa (11 isolates)
Salmonella Spp. = experiment: as above; assay type: cell-based
[7] = MRSA, S. aureus [MRSA] (31 isolates)
[8] = MSSA, S. aureus [MSSA] (32 isolates)
[9] = S. epidermidis [MSSE] (31 isolates)
[10] = S. epidermidis [MRSE] (32 isolates)

With `Cc1onc(-c2ccccc2)c1C(=O)N[C@@H]1C(=O)N2[C@@H]1SC(C)(C)[C@@H]2C(=O)O` [Oxacillin] the “MIC Range” value (S. aureus; S. aureus [MSSA] (32 isolates)) was 0.12 to 1 µg/mL, the MIC50 (S. aureus; [7]) was over 32 µg/mL and the MIC90 (S. aureus; [7]) was over 32 µg/mL. The MIC50 (S. aureus; [8]) was 0.5 µg/mL (≈ 1.25 µM), the MIC90 (S. aureus; [8]) was 1 µg/mL (≈ 2.49 µM) and the “MIC Range” value (S. epidermidis; [9]) was 0.06 to 0.25 µg/mL. For the same compound, the MIC50 (S. epidermidis; [10]) was 32 µg/mL (≈ 79.7 µM), the MIC90 (S. epidermidis; [10]) was over 32 µg/mL and the MIC50 (S. epidermidis; [9]) was 0.12 µg/mL (≈ 0.299 µM). It also gave an MIC90 (S. epidermidis; [9]) of 0.25 µg/mL (≈ 0.623 µM), an MIC50 (S. haemolyticus) of 0.25 µg/mL (≈ 0.623 µM) and an MIC90 (S. haemolyticus) of over 32 µg/mL. The “MIC Range” value [1] was 0.25 to 2 µg/mL, the MIC50 [1] was 0.25 µg/mL (≈ 0.623 µM) and the MIC90 [1] was 0.5 µg/mL (≈ 1.25 µM). For the same compound, the MIC50 ([2]; MRSA-HA (33 isolates)) was 32 µg/mL (≈ 79.7 µM), the MIC90 ([2]; MRSA-HA (33 isolates)) was over 32 µg/mL and the MIC50 ([3]; MRSA-CA (33 isolates)) was 32 µg/mL (≈ 79.7 µM). The MIC90 ([3]; MRSA-CA (33 isolates)) was over 32 µg/mL.

With `C[C@H]1COc2c(N3CCN(C)CC3)c(F)cc3c(=O)c(C(=O)O)cn1c23` [Levofloxacin] the MIC90 (Chlamydia trachomatis [4]) was 0.25 µg/mL (≈ 0.692 µM), the “MIC Range” value (Chlamydia trachomatis [5]; 72 h) was 0.125 to 0.5 µg/mL and the MIC50 (Chlamydia trachomatis [5]; Chlamydia trachomatis, 72 h) was 0.25 µg/mL (≈ 0.692 µM). For the same compound, the MIC90 (Chlamydia trachomatis [5]; Chlamydia trachomatis, 72 h) was 0.25 µg/mL (≈ 0.692 µM), the MBC (Chlamydia trachomatis [5]; Chlamydia trachomatis, after passage, read-out: MBC 90%) was 0.5 µg/mL (≈ 1.38 µM) and the “MBC Range” value (Chlamydia trachomatis [5]; after passage) was 0.125 to 1 µg/mL. For the same compound, the “MIC Range” value (Chlamydia pneumoniae; 72 h) was 0.5 µg/mL (≈ 1.38 µM), the MIC50 (Chlamydia pneumoniae; Chlamydia pneumoniae, 72 h) was 0.5 µg/mL (≈ 1.38 µM) and the MIC90 (Chlamydia pneumoniae; Chlamydia pneumoniae, 72 h) was 0.5 µg/mL (≈ 1.38 µM). The MBC (Chlamydia pneumoniae; Chlamydia pneumoniae, after passage, read-out: MBC 90%) was 2 µg/mL (≈ 5.53 µM), the “MBC 90%” value (Chlamydia pneumoniae; after passage) was 2 µg/mL (≈ 5.53 µM) and the “MBC Range” value (Chlamydia pneumoniae; after passage) was 0.125 to 2 µg/mL.

In the case of `CC[C@H]1OC(=O)[C@H](C)[C@@H](O[C@H]2C[C@@](C)(OC)[C@@H](O)[C@H](C)O2)[C@H](C)[C@@H](O[C@@H]2O[C@H](C)C[C@H](N(C)C)[C@H]2O)[C@](C)(O)C[C@@H](C)C(=O)[C@H](C)[C@@H](O)[C@]1(C)O` [Erythromycin], the MIC50 (P. acnes; read-out: MIC50) was at most 0.06 µg/mL, the MIC90 (P. acnes; read-out: MIC90) was over 128 µg/mL and the MIC50 (S. aureus; [7]) was over 32 µg/mL. For the same compound, the MIC90 (S. aureus; [7]) was over 32 µg/mL, the MIC50 (S. aureus; [8]) was 0.5 µg/mL (≈ 0.681 µM) and the MIC90 (S. aureus; [8]) was over 32 µg/mL. The MIC50 (S. epidermidis; [10]) was over 32 µg/mL, the MIC90 (S. epidermidis; [10]) was over 32 µg/mL and the MIC50 (S. epidermidis; [9]) was 0.25 µg/mL (≈ 0.341 µM). It also gave an MIC90 (S. epidermidis; [9]) of over 32 µg/mL, an MIC50 (S. pneumoniae; read-out: MIC50) of 0.03 µg/mL (≈ 0.0409 µM) and an MIC90 (S. pneumoniae; read-out: MIC90) of 2 µg/mL (≈ 2.73 µM). It also gave an MIC50 (S. pyogenes) of 0.06 µg/mL (≈ 0.0818 µM), an MIC90 (S. pyogenes) of 0.06 µg/mL (≈ 0.0818 µM) and an MIC50 (S. agalactiae) of 0.06 µg/mL (≈ 0.0818 µM). It also gave an MIC90 (S. agalactiae) of over 16 µg/mL, an MIC50 (S. haemolyticus) of over 32 µg/mL and an MIC90 (S. haemolyticus) of over 32 µg/mL. It also gave an MIC50 ([6]; read-out: MIC50) of 0.06 µg/mL (≈ 0.0818 µM), an MIC90 ([6]; read-out: MIC90) of 4 µg/mL (≈ 5.45 µM) and an MIC50 (E. faecalis) of over 32 µg/mL. For the same compound, the MIC90 (E. faecalis) was over 32 µg/mL, the MIC50 (E. faecium) was over 32 µg/mL and the MIC90 (E. faecium) was over 32 µg/mL. The MIC50 (E. faecium; VRE) was over 32 µg/mL and the MIC90 (E. faecium; VRE) was over 32 µg/mL.

With `CC(=O)NC[C@H]1CN(c2ccc(N3CCOCC3)c(F)c2)C(=O)O1` [Linezolid] the “MIC Range” value [1] was 2 to 4 µg/mL, the MIC50 [1] was 2 µg/mL (≈ 5.93 µM) and the MIC90 [1] was 4 µg/mL (≈ 11.9 µM). The “susceptibility of the test organisms” value ([1]; all MSSA test organisms) was “susceptible”, the “MIC Range” value ([2]; MRSA-HA (33 isolates)) was 2 to 4 µg/mL and the MIC50 ([2]; MRSA-HA (33 isolates)) was 2 µg/mL (≈ 5.93 µM). The MIC90 ([2]; MRSA-HA (33 isolates)) was 2 µg/mL (≈ 5.93 µM), the “susceptibility of the test organisms” value ([2]; all MRSA-HA organisms) was “susceptible” and the “MIC Range” value ([3]; MRSA-CA (33 isolates)) was 2 to 4 µg/mL. For the same compound, the MIC50 ([3]; MRSA-CA (33 isolates)) was 2 µg/mL (≈ 5.93 µM), the MIC90 ([3]; MRSA-CA (33 isolates)) was 4 µg/mL (≈ 11.9 µM) and the “susceptibility of the test organisms” value ([3]; all MRSA-CA test organisms) was “susceptible”.

With `O=C(O)c1cn(C2CC2)c2cc(N3CCNCC3)c(F)cc2c1=O` [Ciprofloxacin] the MIC50 (E. coli) was 0.015 µg/mL (≈ 0.0453 µM), the MIC90 (E. coli) was over 2 µg/mL and the MIC50 (K. pneumoniae) was over 2 µg/mL. The MIC90 (K. pneumoniae) was over 2 µg/mL, the MIC50 (P. mirabilis) was over 2 µg/mL and the MIC90 (P. mirabilis) was over 2 µg/mL. For the same compound, the MIC50 (P. aeruginosa) was over 2 µg/mL, the MIC90 (P. aeruginosa) was over 2 µg/mL and the MIC50 (Salmonella Spp.; Salmonella) was 0.015 µg/mL (≈ 0.0453 µM). For the same compound, the MIC90 (Salmonella Spp.; Salmonella) was 0.03 µg/mL (≈ 0.0905 µM) and the “MIC Range” value (Salmonella Spp.; Salmonella Spp. (35 isolates)) was 0.015 to 0.25 µg/mL.
